Test results from patent US6737383B1, “Herbicidal oxadiazolidines” (priority 1999, dated 2004).

Tests used:
winter barley = assay: Test E winter barley; type: in vivo, Hordeum vulgare; conditions: Preemergence
blackgrass = assay: Test E blackgrass; type: in vivo, Alopecurus myosuroides; conditions: Preemergence
purple nutsedge = assay: Test B pre/postemergence purple nutsedge; type: in vivo, Cyperus rotundus
Outline: (§1)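 Herbicidal effect was estimated by eye on a ten-point control scale after plants spent twelve to sixteen days in a greenhouse following soil or foliar treatment. Foliar sprays targeted plants at one to four leaves; all doses were formulated in a non-phytotoxic solvent with surfactant.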

green foxtail = assay: Test E green foxtail; type: in vivo, Setaria viridis; conditions: Preemergence
wild oat = assay: Test E wild oat; type: in vivo, Avena fatua; conditions: Preemergence
winter wheat [1] = assay: Test E winter wheat; type: in vivo, Triticum aestivum; conditions: Preemergence
sugar beet = assay: Test B pre/postemergence sugar beet; type: in vivo, Beta vulgaris; conditions: for Plant response rating, Sugarbeets: Rate 250 g/ha
Outline: as §1

winter wheat [2] = assay: Test E winter wheat; type: in vivo, Triticum aestivum; conditions: Postemergence
Outline: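 Postemergence: spray at 1–4 leaf stage, soil 60:40 sandy loam:potting mix; solvent + surfactant formulation; greenhouse 21–28 d; visual injury vs untreated controls.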

large crabgrass = assay: Test D large crabgrass; type: in vivo, Digitaria sanguinalis; conditions: Preemergence, 0 to 100 scale
Outline: (§2)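 Seeds were sown in greenhouse pots, one species per pot or compartment. Compounds were in a non-phytotoxic solvent mixture with surfactant; preemergence applications went on the sandy loam surface within one day of planting. Injury was rated visually after 14 to 21 days, 0 (none) to 100 (complete control).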

rice = assay: Test B flood test rice; type: in vivo, Oryza sativa
Outline: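 Each value is a visual injury score relative to controls, with 10 meaning complete control and 0 no effect. Evaluation took place twelve to sixteen days after the 2-leaf-stage plants were treated and kept in the greenhouse.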

common ragweed = assay: Test D common ragweed; type: in vivo, Ambrosia elatior; conditions: Preemergence, 0 to 100 scale
Outline: as §2

Italian ryegrass = assay: Test E Italian ryegrass; type: in vivo, Lolium multiflorum; conditions: Preemergence
pigweed = assay: Test B pre/postemergence pigweed; type: in vivo, Amaranthus retroflexus
Outline: as §1

[3] = Rate 62 g/ha, 0 to 100 scale, 0 no effect, 100 complete control
[4] = Rate 125 g/ha, 0 to 100 scale (0 no effect, 100 complete control)
[5] = Rate 500 g/ha, 0 to 100 scale where 0 is no effect and 100 is complete control
[6] = Postemergence, Rate 125 g/ha, scale of 0 to 10 where 0 is no effect and 10 is complete control
[7] = Preemergence, Rate 62 g/ha, scale 0 to 10 (0 no effect, 10 complete control)
[8] = Preemergence, Rate 125 g/ha, scale 0 to 10 (0 no effect, 10 complete control)
[9] = Preemergence, Rate 250 g/ha, scale of 0 to 10 where 0 is no effect and 10 is complete control
[10] = Preemergence, Rate 500 g/ha, scale 0 to 10 (0 no effect, 10 complete control)
[11] = Rate 62 g/ha, Postemergence, scale of 0 to 10 where 0 is no effect and 10 is complete control
[12] = Rate 500 g/ha, Postemergence, scale 0 to 10, 0 no effect, 10 complete control
[13] = Rate 16 g/ha, 0 no injury, 100 complete control
[14] = Rate 32 g/ha, 0 no injury, 100 complete control
[15] = Rate 64 g/ha, 0 no injury, 100 complete control
[16] = Rate 125 g/ha, 0 no injury, 100 complete control

CC(C)N(C(=O)n1oc(=O)n(C(C)C)c1=O)c1ccc(F)cc1F [Compound 109]
5: Plant response rating, Barley (winter) (winter barley; [5]) | Redroot pigweed plant response rating (pigweed; [6])
75: Plant response rating, Wheat (winter) (winter wheat [2]; Rate 250 g/ha, 0 to 100 scale (0 no effect, 100 complete control))
50: Plant response rating, Green foxtail (green foxtail; [3])
65: Plant response rating, Blackgrass (blackgrass; [4]) | Plant response rating, Blackgrass (blackgrass; Rate 250 g/ha, 0 to 100 scale)
6: Plant response rating, Sugarbeets (sugar beet; Postemergence, scale 0 to 10, 0 is no effect, 10 is complete control)
80: Plant response rating, Wild oat (wild oat; [5])
8: Sugarbeets plant response rating (sugar beet; [7]) | Plant response rating, Redroot pigweed (pigweed; Rate 250 g/ha, Postemergence, scale 0 to 10, 0 is no effect, 10 is complete control) | Redroot pigweed plant response rating (pigweed; [12])
7: Sugarbeets plant response rating (sugar beet; [12]) | Rice plant response rating (rice; Rate 2000 g/ha, Pre-emergence (as headed), scale 0 to 10)
85: Plant response rating, Green foxtail (green foxtail; [4]) | Plant response rating, Green foxtail (green foxtail; [5]) | Plant response rating Large crabgrass (large crabgrass; [13])
100: Plant response rating, Green foxtail (green foxtail; Rate 250 g/ha, 0 to 100 scale) | Plant response rating Large crabgrass (large crabgrass; [14]) | Plant response rating Large crabgrass (large crabgrass; [15]) | Plant response rating Large crabgrass (large crabgrass; [16]) | Plant response rating Large crabgrass (large crabgrass; Rate 250 g/ha) | Plant response rating Large crabgrass (large crabgrass; Rate 500 g/ha) | Plant response rating, I. Ryegrass (Italian ryegrass; [4]) | Plant response rating, I. Ryegrass (Italian ryegrass; Rate 250 g/ha, 0 to 100 scale)
4: Nutsedge plant response rating (purple nutsedge; [12]) | Sugarbeets plant response rating (sugar beet; [6])
55: Plant response rating, Wheat (winter) (winter wheat [1]; Rate 250 g/ha, 0 to 100 scale) | Plant response rating, Wheat (winter) (winter wheat [2]; Rate 125 g/ha, 0 to 100 scale) | Plant response rating, C. ragweed (common ragweed; Rate 500 g/ha)
90: Plant response rating, Blackgrass (blackgrass; [5])
0: Nutsedge plant response rating (purple nutsedge; [6]) | Nutsedge plant response rating (purple nutsedge; Postemergence, Rate 250 g/ha, scale 0 to 10, 0 no effect, 10 complete control) | Nutsedge plant response rating (purple nutsedge; [7]) | Plant response rating, Nutsedge (purple nutsedge; [8]) | Plant response rating, Nutsedge (purple nutsedge; [9]) | Nutsedge plant response rating (purple nutsedge; [10]) | Nutsedge plant response rating (purple nutsedge; [11]) | Plant response rating, Wheat (winter) (winter wheat [2]; Rate 62 g/ha, 0 to 100 scale) | Plant response rating, Wheat (winter) (winter wheat [2]; Rate 500 g/ha, 0 to 100 scale, 0 no effect, 100 complete control) | Rice plant response rating (rice; Postemergence (flood test species), Rate 125 g/ha, scale of 0 to 10 where 0 is no effect and 10 is complete control) | Rice plant response rating (rice; Rate 62 g/ha, Postemergence section, flood test species, scale of 0 to 10 where 0 is no effect and 10 is complete control) | Plant response rating, Rice (rice; Rate 250 g/ha, Postemergence (flood test), scale 0 to 10, 0 is no effect, 10 is complete control) | Rice plant response rating (rice; Rate 250 g/ha, headed Pre-emergence (flood test species), scale 0 to 10 (0 no effect, 10 complete control)) | Plant response rating, Rice (rice; Rate 500 g/ha, headed Pre-emergence (flood test species), scale 0 to 10 (0 no effect, 10 complete control)) | Rice plant response rating (rice; Rate 500 g/ha, listed under Postemergence (flood test species), scale 0 to 10, 0 no effect, 10 complete control) | Rice plant response rating (rice; Rate 1000 g/ha, Pre-emergence (as headed), scale 0 to 10) | Plant response rating, C. ragweed (common ragweed; [13]) | Plant response rating, C. ragweed (common ragweed; [14])
20: Plant response rating, Barley (winter) (winter barley; Rate 250 g/ha, 0 to 100 scale) | Plant response rating, Wild oat (wild oat; [3]) | Plant response rating, Wheat (winter) (winter wheat [1]; [3]) | Plant response rating, I. Ryegrass (Italian ryegrass; [3])
3: Sugarbeets plant response rating (sugar beet; [11]) | Redroot pigweed plant response rating (pigweed; [11])
30: Plant response rating, Blackgrass (blackgrass; [3]) | Plant response rating, Wild oat (wild oat; [4]) | Plant response rating, Wheat (winter) (winter wheat [1]; [4])
10: Plant response rating, Barley (winter) (winter barley; [3]) | Plant response rating, Barley (winter) (winter barley; [4]) | Plant response rating, Wheat (winter) (winter wheat [1]; [5]) | Sugarbeets plant response rating (0 to 10 scale) (sugar beet; Preemergence, Rate 125 g/ha, 0 is no effect, 10 is complete control) | Plant response rating, Sugarbeets (sugar beet; Preemergence, scale of 0 to 10 where 0 is no effect and 10 is complete control) | Sugarbeets plant response rating (sugar beet; [10]) | Plant response rating, C. ragweed (common ragweed; [15]) | Plant response rating, C. ragweed (common ragweed; [16]) | Plant response rating, C. ragweed (common ragweed; Rate 250 g/ha) | Redroot pigweed plant response rating (pigweed; [7]) | Plant response rating, Redroot pigweed (pigweed; [8]) | Plant response rating, Redroot pigweed (pigweed; [9]) | Redroot pigweed plant response rating (pigweed; [10])
70: Plant response rating, I. Ryegrass (Italian ryegrass; [5])
